The values below come from article PMC3892769 (Journal of medicinal chemistry, 2008).

The subject of one experiment is human FPGS. Particulars: at concentrations up to 1045 µM; cited from earlier work.
In a further experiment the target is T1, T. gondii DHFR (Toxoplasma gondii, UniProt Q07422).
T1 sequence (Q07422 1-610): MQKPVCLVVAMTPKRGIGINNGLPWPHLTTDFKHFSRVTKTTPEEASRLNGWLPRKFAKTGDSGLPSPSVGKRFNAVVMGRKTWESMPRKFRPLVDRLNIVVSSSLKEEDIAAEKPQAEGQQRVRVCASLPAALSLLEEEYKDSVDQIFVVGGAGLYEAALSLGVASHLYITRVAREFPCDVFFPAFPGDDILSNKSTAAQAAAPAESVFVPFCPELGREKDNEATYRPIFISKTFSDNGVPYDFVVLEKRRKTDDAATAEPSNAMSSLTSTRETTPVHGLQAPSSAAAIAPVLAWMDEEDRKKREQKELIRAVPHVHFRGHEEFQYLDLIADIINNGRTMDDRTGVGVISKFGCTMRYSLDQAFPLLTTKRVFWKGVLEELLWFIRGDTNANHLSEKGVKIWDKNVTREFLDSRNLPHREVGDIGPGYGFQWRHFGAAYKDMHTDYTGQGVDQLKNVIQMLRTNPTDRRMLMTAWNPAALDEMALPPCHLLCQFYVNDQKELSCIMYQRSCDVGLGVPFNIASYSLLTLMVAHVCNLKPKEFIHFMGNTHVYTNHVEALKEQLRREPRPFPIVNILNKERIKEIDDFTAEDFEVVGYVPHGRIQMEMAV
In words: biochemical.

Another experiment has as its target T2, human DHFR (Homo sapiens, UniProt P00374).
T2 sequence (P00374 1-187): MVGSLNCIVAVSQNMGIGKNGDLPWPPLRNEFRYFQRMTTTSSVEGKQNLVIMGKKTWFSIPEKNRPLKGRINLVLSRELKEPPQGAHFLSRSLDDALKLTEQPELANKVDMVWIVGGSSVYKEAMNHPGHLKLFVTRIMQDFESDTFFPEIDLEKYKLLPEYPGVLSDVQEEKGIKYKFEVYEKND
In words: Inhibition of human DHFR. Type of experiment: biochemical.

The target of another experiment is E. coli TS (Escherichia coli, UniProt P0A884). In words: Inhibition of E. coli TS. Type of experiment: biochemical.
Another experiment addresses human TS (Homo sapiens, UniProt P04818). As to the kind of experiment: Inhibition of human TS. Type of experiment: biochemical.
The target of another experiment is E. coli DHFR (Escherichia coli, UniProt P0ABQ4). In words: Inhibition of E. coli DHFR. It counts as biochemical. The following applies: read-out: % inhibition of E. coli DHFR at the stated concentration.
In a further experiment the target is T3, T. gondii TS (Toxoplasma gondii, UniProt Q07422).
T3 sequence (Q07422 1-610): T1 sequence (Q07422 1-610)
As to the kind of experiment: biochemical.

Each structure is given as a SMILES string. Some results are limits rather than exact numbers.

E. coli TS, sequence (P0A884 whole entry): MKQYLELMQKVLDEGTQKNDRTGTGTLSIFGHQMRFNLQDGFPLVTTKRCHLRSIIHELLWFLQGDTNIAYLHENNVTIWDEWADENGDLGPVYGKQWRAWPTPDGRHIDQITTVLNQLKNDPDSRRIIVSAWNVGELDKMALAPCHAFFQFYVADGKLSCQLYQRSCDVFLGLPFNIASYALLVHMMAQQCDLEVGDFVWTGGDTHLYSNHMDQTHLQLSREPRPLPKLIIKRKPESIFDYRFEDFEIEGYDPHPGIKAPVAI
E. coli DHFR, sequence (P0ABQ4 whole entry): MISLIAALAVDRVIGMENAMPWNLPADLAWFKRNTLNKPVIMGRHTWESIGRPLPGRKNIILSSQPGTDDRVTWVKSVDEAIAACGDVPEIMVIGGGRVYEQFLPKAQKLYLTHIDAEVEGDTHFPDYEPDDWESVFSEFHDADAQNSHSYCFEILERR
human TS, sequence (P04818 whole entry): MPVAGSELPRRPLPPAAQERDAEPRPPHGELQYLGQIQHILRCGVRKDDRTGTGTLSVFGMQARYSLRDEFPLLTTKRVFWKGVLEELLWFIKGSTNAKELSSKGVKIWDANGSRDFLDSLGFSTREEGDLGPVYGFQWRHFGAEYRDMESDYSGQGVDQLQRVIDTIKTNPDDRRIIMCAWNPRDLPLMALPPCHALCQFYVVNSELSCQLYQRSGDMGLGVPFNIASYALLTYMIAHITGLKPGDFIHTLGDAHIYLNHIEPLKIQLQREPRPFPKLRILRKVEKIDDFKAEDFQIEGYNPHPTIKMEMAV

Consider `Cc1[nH]c2nc(N)[nH]c(=O)c2c1Sc1ccc(C(=O)N[C@@H](CCC(=O)O)C(=O)O)cc1` [Compound 1, N-{4-[(2-amino-6-methyl-4-oxo-4,7-dihydro-3H-pyrrolo[2,3-d]pyrimidin-5-yl)thio]benzoyl}-L-glutamic acid], for which, in the experiment with human FPGS, the “Substrate for human FPGS” value is given as “not a substrate”.

A word on the IC50: it is the concentration that inhibits the measured activity by half. High values mean weaker potency in that assay, low ones greater potency in that assay. Regarding `COc1ccc(OC)c(Sc2c(C)sc3nc(N)[nH]c(=O)c23)c1` [Compound 8, 2-Amino-5-[(2,5-dimethoxyphenyl)sulfanyl]-6-methylthieno[2,3-d]pyrimidin-4(3H)-one], the IC50 is 0.056 µM against T. gondii DHFR; 22 µM at human DHFR; more than 23 µM at E. coli TS; 4.6 µM at human TS; more than 23 µM against T. gondii TS. Also, the results for the inhibition at 23 µM at E. coli TS (read-out: % inhibition of E. coli TS at the stated concentration) and at T. gondii TS (read-out: % inhibition of T. gondii TS at the stated concentration) were 36% and 0%, respectively. In addition, the inhibition at 28 µM on E. coli DHFR is 0%.
